Key:
[1] = Stability of the conjugate in ammonium acetate buffer, HPLC; type: physicochemical; conditions: for % release of Compound IIA from the conjugate: 37° C., after four hours incubation
Description: Stability of the conjugates was studied using HPLC analysis. The conjugate was incubated in ammonium acetate buffers at pH 4 and 5.2 at 37° C. Each solution was then taken periodically and applied to an HPLC column using a method reported above. The amount of material released from the conjugate was determined and expressed as percent of released material.
To 0.5 mg of conjugate, ammonium acetate 5 mM pH=5.2 buffer solution (200 mL) was added. The solution was warmed at 37° C. and sample was taken periodically and analyzed by HPLC (method 2). Results are expressed as % of released material (8S,10S)-6,8,11-trihydroxy-8-(hydroxyacetyl)-1-methoxy-10-{[(1S,3R,4aS,9S,9aR,10aS)-9-methoxy-1-methyloctahydro-1H-pyrano[4′,3′:4,5][1,3]oxazolo[2,3-c][1,4]oxazin-3-yl]oxy}-7,8,9,10-tetrahydrotetracene-5,12-dione (Compound IIA) from the conjugate. […]

SK-BR-3 cells = experiment: CellTiter-Glo in vitro cell proliferation assay, SK-BR-3; type: cell-based; conditions: continuous exposure, 3 days
Text: (§1) Cell-based in vitro assays may be used to measure viability, i.e. proliferation (IC50), cytotoxicity (EC50), and induction of apoptosis (caspase activation) of the ADC. The CellTiter-Glo® Luminescent Cell Viability Assay is a commercially available (Promega Corp., Madison, Wis.), homogeneous assay method based on the recombinant expression of Coleoptera luciferase (U.S. Pat. Nos. 5,583,024; 5,674,713; 5,700,670). This cell proliferation assay determines the number of viable cells in culture based on quantitation of the ATP present, an indicator of metabolically active cells (Crouch et al (1993) J. Immunol. Meth. 160:81-88; U.S. Pat. No. 6,602,677). The CellTiter-Glo® Assay is conducted in 96 well format, making it amenable to automated high-throughput screening (HTS) (Cree et al (1995) AntiCancer Drugs 6:398-404). The homogeneous assay procedure involves adding the single reagent (CellTiter-Glo® Reagent) directly to cells cultured in serum-supplemented medium. Cell washing, removal of medium and multiple pipetting steps are not required. The system detects as few as 15 cells/well in a 384-well format in 10 minutes after adding reagent and mixing.
(§2) The in vitro potency of antibody-drug conjugates was measured by a cell proliferation assay (FIGS. 8-29). The CellTiter-Glo® Luminescent Cell Viability Assay is a commercially available (Promega Corp., Madison, Wis.), homogeneous assay method based on the recombinant expression of Coleoptera luciferase (U.S. Pat. Nos. 5,583,024; 5674,713; 5,700,670). This assay determines the number of viable cells in culture based on quantitation of the ATP present, an indicator of metabolically active cells (Crouch et al (1993) J. Immunol. Meth. 160:81-88; U.S. Pat. No. 6,602,677). The CellTiter-Glo® Assay was conducted in 96 well format, making it amenable to automated high-throughput screening (HTS) (Cree et al (1995) AntiCancer Drugs 6:398-404). The homogeneous assay procedure involves adding the single reagent (CellTiter-Glo® Reagent) directly to cells cultured in serum-supplemented medium.
(§3) The homogeneous “add-mix-measure” format results in cell lysis and generation of a luminescent signal proportional to the amount of ATP present. The substrate, Beetle Luciferin, is oxidatively decarboxylated by recombinant firefly luciferase with concomitant conversion of ATP to AMP and generation of photons. Viable cells are reflected in relative luminescence units (RLU). Data can be recorded by luminometer or CCD camera imaging device. The luminescence output is presented as RLU, measured over time. Alternatively, photons from luminescence can be counted in a scintillation counter in the presence of a scintillant. The light units can be represented then as CPS—counts per second.
(§4) Efficacy of ADC were measured by a cell viability assay employing the following protocol, adapted from CellTiter Glo Luminescent Cell Viability Assay, Promega Corp. Technical Bulletin TB288 and Mendoza et al (2002) Cancer Res. 62:5485-5488: • 1. An aliquot of 50 μl of cell culture containing about 1000 or more cells, including: HER2-expressing and CD22-expressing cells, in medium was deposited in each well of a 96-well, opaque-walled, clear bottom plate. • 2. ADC (50 μl) was added to triplicate experimental wells to final concentration of 10 μg/mL, with “no ADC” control wells receiving medium alone, and incubated for 3 or more days. • 3. The plates were equilibrated to room temperature for approximately 30 minutes. • 4. CellTiter-Glo Reagent (100 μl) was added. • 5. The contents were mixed for 2 minutes on an orbital shaker to induce cell lysis. • 6. The plate was incubated at room temperature for 10 minutes to stabilize the luminescence signal. • 7. Luminescence was recorded and reported in graphs as RLU=relative luminescence units.

BT-474 cells = experiment: CellTiter-Glo in vitro cell proliferation assay, BT-474; type: cell-based; conditions: continuous exposure, 3 days
Text: as §1, §2, §3, §4

MCF7 cells = experiment: CellTiter-Glo in vitro cell proliferation assay, MCF7; type: cell-based, human; conditions: continuous exposure, 3 days
Text: as §1, §2, §3, §4

[2] = test system: doxorubicin-resistant (DoxRes) HER2 cells; experiment: CellTiter-Glo in vitro cell proliferation assay, doxorubicin-resistant HER2; type: cell-based; conditions: continuous exposure, 3 days
Text: as §1, §2, §3, §4

tumor models = conditions: cited from earlier work

CNC(=O)COC1(OCC(=O)[C@]2(O)Cc3c(O)c4c(c(O)c3[C@@H](O[C@H]3C[C@H]5[C@H](O[C@@H]6[C@@H](OC)OCCN65)[C@H](C)O3)C2)C(=O)c2c(OC)cccc2C4=O)CCCCC1 [Compound 2, N-methyl-2-[(1-{2-oxo-2-[(2S,4S)-2,5,12-trihydroxy-7-methoxy-4-{[(1S,3R,4aS,9S,9aR,10aS)-9-methoxy-1-methyloctahydro-1H-pyrano[4′,3′:4,5][1,3]oxazolo[2,3-c][1,4]oxazin-3-yl]oxy}-6,11-dioxo-1,2,3,4,6,11-hexahydrotetracen-2-yl]ethoxy}cyclohexyl)oxy]acetamide]
stability at pH 5.2, release of compound of formula (IIA) over time, in words ([1]; pH 5.2, FIG. 1): increased release of the free compound of the formula (IIA)

COc1cccc2c1C(=O)c1c(O)c3c(c(O)c1C2=O)C[C@@](O)(/C(CO)=N/NC(=O)CCSSC[C@H](NC(C)=O)C(=O)O)C[C@@H]3O[C@H]1C[C@H]2[C@H](O[C@@H]3[C@@H](OC)OCCN32)[C@H](C)O1 [Compound 12, N-acetyl-3-({3-[(2E)-2-{2-hydroxy-1-[(2S,4S)-2,5,12-trihydroxy-7-methoxy-4-{[(1S,3R,4aS,9S,9aR,10aS)-9-methoxy-1-methyloctahydro-1H-pyrano[4′,3′:4,5][1,3]oxazolo[2,3-c][1,4]oxazin-3-yl]oxy}-6,11-dioxo-1,2,3,4,6,11-hexahydrotetracen-2-yl]ethylidene}hydrazinyl]-3-oxopropyl}disulfanyl)-L-alanine]
% release of Compound IIA from the conjugate ([1]; pH 4.2 buffer solution): 100% | % release of Compound IIA from the conjugate ([1]; pH 5.2 buffer solution): 90%

COc1cccc2c1C(=O)c1c(O)c3c(c(O)c1C2=O)C[C@@](O)(C(=O)COC1CCCC(COCC(=O)ON2C(=O)CCC2=O)O1)C[C@@H]3O[C@H]1C[C@H]2[C@H](O[C@@H]3[C@@H](OC)OCCN32)[C@H](C)O1 (stereo partly drawn) [Compound 50, 1-({[(6-{2-oxo-2-[(2S,4S)-2,5,12-trihydroxy-7-methoxy-4-{[(1S,3R,4aS,9S,9aR,10aS)-9-methoxy-1-methyloctahydro-1H-pyrano[4′,3′:4,5][1,3]oxazolo[2,3-c][1,4]oxazin-3-yl]oxy}-6,11-dioxo-1,2,3,4,6,11-hexahydrotetracen-2-yl]ethoxy}tetrahydro-2H-pyran-2-yl)methoxy]acetyl}oxy)pyrrolidine-2,5-dione]
SK-BR-3 in vitro cell viability at 3 days, anti-proliferative activity in words (SK-BR-3 cells): minimal anti-proliferative activity | BT-474 in vitro cell viability at 3 days, anti-proliferative activity in words (BT-474 cells): inactive | MCF7 in vitro cell viability at 3 days, anti-proliferative activity in words (MCF7 cells): inactive | DoxRes HER2 in vitro cell viability at 3 days, anti-proliferative activity in words [2]: minimal anti-proliferative activity

COc1cccc2c1C(=O)c1c(O)c3c(c(O)c1C2=O)C[C@@](O)(C(=O)COC1CCCC(COCC(=O)NCCN2C(=O)C=CC2=O)O1)C[C@@H]3O[C@H]1C[C@H]2[C@H](O[C@@H]3[C@@H](OC)OCCN32)[C@H](C)O1 (some centres unmarked) [Compound 51]
SK-BR-3 in vitro cell viability at 3 days, anti-proliferative activity in words (SK-BR-3 cells): minimal anti-proliferative activity | BT-474 in vitro cell viability at 3 days, anti-proliferative activity in words (BT-474 cells): inactive | MCF7 in vitro cell viability at 3 days, anti-proliferative activity in words (MCF7 cells): inactive | DoxRes HER2 in vitro cell viability at 3 days, anti-proliferative activity in words [2]: minimal anti-proliferative activity

COc1cccc2c1C(=O)c1c(O)c3c(c(O)c1C2=O)C[C@@](O)(/C(CO)=N/NC(=O)CCCCCN1C(=O)C=CC1=O)C[C@@H]3O[C@H]1C[C@H]2[C@H](O[C@@H]3[C@@H](OC)OCCN32)[C@H](C)O1 [Compound 52, 6-(2,5-dioxo-2,5-dihydro-1H-pyrrol-1-yl)-N′-{(1E)-2-hydroxy-1-[(2S,4S)-2,5,12-trihydroxy-7-methoxy-4-{[(1S,3R,4aS,9S,9aR,10aS)-9-methoxy-1-methyloctahydro-1H-pyrano[4′,3′:4,5][1,3]oxazolo[2,3-c][1,4]oxazin-3-yl]oxy}-6,11-dioxo-1,2,3,4,6,11-hexahydrotetracen-2-yl]ethylidene}hexanehydrazide]
SK-BR-3 in vitro cell viability at 3 days, anti-proliferative activity in words (SK-BR-3 cells): less potent than free Ant | BT-474 in vitro cell viability at 3 days, anti-proliferative activity in words (BT-474 cells): minimal anti-proliferative activity | MCF7 in vitro cell viability at 3 days, anti-proliferative activity in words (MCF7 cells): minial anti-proliferative activity | DoxRes HER2 in vitro cell viability at 3 days, anti-proliferative activity in words [2]: less potent than free Ant

COc1cccc2c1C(=O)c1c(O)c3c(c(O)c1C2=O)C[C@@](O)(/C(CO)=N/NC(=O)CCSSc1ccccn1)C[C@@H]3O[C@H]1C[C@H]2[C@H](O[C@@H]3[C@@H](OC)OCCN32)[C@H](C)O1 [Compound 53, N′-{(1E)-2-hydroxy-1-[(2S,4S)-2,5,12-trihydroxy-7-methoxy-4-{[(1S,3R,4aS,9S,9aR,10aS)-9-methoxy-1-methyloctahydro-1H-pyrano[4′,3′:4,5][1,3]oxazolo[2,3-c][1,4]oxazin-3-yl]oxy}-6,11-dioxo-1,2,3,4,6,11-hexahydrotetracen-2-yl]ethylidene}-3-(pyridin-2-yldisulfanyl)propanehydrazide]
SK-BR-3 in vitro cell viability at 3 days, anti-proliferative activity in words (SK-BR-3 cells): less potent than free Ant | BT-474 in vitro cell viability at 3 days, anti-proliferative activity in words (BT-474 cells): minimal anti-proliferative activity | MCF7 in vitro cell viability at 3 days, anti-proliferative activity in words (MCF7 cells): minial anti-proliferative activity | DoxRes HER2 in vitro cell viability at 3 days, anti-proliferative activity in words [2]: less potent than free Ant

COc1cccc2c1C(=O)c1c(O)c3c(c(O)c1C2=O)C[C@@](O)(C(=O)CO)C[C@@H]3O[C@H]1C[C@H](N2CCO[C@H](OC)C2)[C@H](O)[C@H](C)O1 [nemorubicin, (8S,10S)-6,8,11-trihydroxy-10-((2R,4S,5S,6S)-5-hydroxy-4-((S)-2-methoxymorpholino)-6-methyltetrahydro-2H-pyran-2-yloxy)-8-(2-hydroxyacetyl)-1-methoxy-7,8,9,10-tetrahydrotetracene-5,12-dione]
antitumor activity in in vivo tumor models, in words (tumor models): promising antitumor activity on experimental murine tumors

Reference: patent publication US9695240B2, “Anthracycline derivative conjugates, process for their preparation and their use as antitumor compounds” (Genentech, Inc., priority 2008, dated 2017)
